The test system of one data set is SARS-CoV-2. Nature of the data set: Antiviral activity against luciferase-expressing pseudovirus encoding SARS-CoV-2 Omicron expressing S protein infected in human 293T/ACE2 cells assessed as reduction of viral growth measured after 48 hrs by luciferase assay. Type of data set: functional, organism-based. The note with it: Severe acute respiratory syndrome coronavirus 2, 293T/ACE2, 48 h.

The nature of data set [1]: Cytotoxicity against human 293T/ACE2 cells assessed as reduction in cell growth measured after 48 hrs by MTT assay. Type of data set: functional.
A short description of data set [2]: Selectivity index, ratio of CC50 for human 293T/ACE2 cells to EC50 for SARS-CoV-2 Omicron. The format is toxicity. The note with it: read-out: Ratio CC50/EC50.

What is called EC50 is the midpoint of the concentration-response curve. Usually CC50 stands for the concentration giving 50% cytotoxicity. In the case of `C=C(C)[C@@H]1CC[C@]2(C(=O)Nc3ccc(Cl)cc3)CC[C@]3(C)[C@H](CC[C@@H]4[C@@]5(C)CC[C@H](O[C@@H]6O[C@H](CO)[C@@H](O[C@@H]7O[C@@H](C)[C@H](O)[C@@H](O)[C@H]7O)[C@H](O)[C@H]6O[C@@H]6O[C@@H](C)[C@H](O)[C@@H](O)[C@H]6O)C(C)(C)[C@@H]5CC[C@]43C)[C@@H]12`, the half-maximal effective concentration (EC50) in the data set with SARS-CoV-2 is 6.5 µM. Moreover, the CC50 in data set [1] was found to be 87.5 µM. In addition, the selectivity ratio in data set [2] was found to be 13.5.
For `C=C(C)[C@@H]1CC[C@]2(C(=O)NCc3ccccc3Cl)CC[C@]3(C)[C@H](CC[C@@H]4[C@@]5(C)CC[C@H](O[C@@H]6O[C@H](CO)[C@@H](O[C@@H]7O[C@@H](C)[C@H](O)[C@@H](O)[C@H]7O)[C@H](O)[C@H]6O[C@@H]6O[C@@H](C)[C@H](O)[C@@H](O)[C@H]6O)C(C)(C)[C@@H]5CC[C@]43C)[C@@H]12`, in the data set on SARS-CoV-2, the concentration for a half-maximal effect (EC50) is more than 20 µM.
On to `C=C(C)[C@@H]1CC[C@]2(C(=O)NCCc3ccccc3)CC[C@]3(C)[C@H](CC[C@@H]4[C@@]5(C)CC[C@H](O[C@@H]6O[C@H](CO)[C@@H](O[C@@H]7O[C@@H](C)[C@H](O)[C@@H](O)[C@H]7O)[C@H](O)[C@H]6O[C@@H]6O[C@@H](C)[C@H](O)[C@@H](O)[C@H]6O)C(C)(C)[C@@H]5CC[C@]43C)[C@@H]12`, for which the EC50 in the data set with SARS-CoV-2 came to 8.47 µM. Also, in data set [1], the CC50 is 226 µM. In addition, the selectivity ratio in data set [2] stood at 26.7.
As to `C=C(C)[C@@H]1CC[C@]2(C(=O)Nc3cccc(Cl)c3)CC[C@]3(C)[C@H](CC[C@@H]4[C@@]5(C)CC[C@H](O[C@@H]6O[C@H](CO)[C@@H](O[C@@H]7O[C@@H](C)[C@H](O)[C@@H](O)[C@H]7O)[C@H](O)[C@H]6O[C@@H]6O[C@@H](C)[C@H](O)[C@@H](O)[C@H]6O)C(C)(C)[C@@H]5CC[C@]43C)[C@@H]12`, in the data set on SARS-CoV-2, the EC50 amounted to 6.63 µM. Besides, in data set [1], the CC50 was found to be 56.4 µM. Besides, the selectivity ratio in data set [2] worked out at 8.51.
On to `C=C(C)[C@@H]1CC[C@]2(C(=O)NCc3cccs3)CC[C@]3(C)[C@H](CC[C@@H]4[C@@]5(C)CC[C@H](O[C@@H]6O[C@H](CO)[C@@H](O[C@@H]7O[C@@H](C)[C@H](O)[C@@H](O)[C@H]7O)[C@H](O)[C@H]6O[C@@H]6O[C@@H](C)[C@H](O)[C@@H](O)[C@H]6O)C(C)(C)[C@@H]5CC[C@]43C)[C@@H]12`, for which the 50% effective concentration (EC50) in the data set on SARS-CoV-2 worked out at 6.15 µM. The CC50 in data set [1] was determined as 41.9 µM. The selectivity ratio in data set [2] came out at 6.81.
For `C=C(C)[C@@H]1CC[C@]2(C(=O)Nc3ccc4c(cnn4C)c3)CC[C@]3(C)[C@H](CC[C@@H]4[C@@]5(C)CC[C@H](O[C@@H]6O[C@H](CO)[C@@H](O[C@@H]7O[C@@H](C)[C@H](O)[C@@H](O)[C@H]7O)[C@H](O)[C@H]6O[C@@H]6O[C@@H](C)[C@H](O)[C@@H](O)[C@H]6O)C(C)(C)[C@@H]5CC[C@]43C)[C@@H]12`, the EC50 in the data set with SARS-CoV-2 is more than 20 µM.
With `C=C(C)[C@@H]1CC[C@]2(C(=O)OC)CC[C@]3(C)[C@H](CC[C@@H]4[C@@]5(C)CC[C@H](O[C@@H]6O[C@H](CO)[C@@H](O[C@@H]7O[C@@H](C)[C@H](O)[C@@H](O)[C@H]7O)[C@H](O)[C@H]6O[C@@H]6O[C@@H](C)[C@H](O)[C@@H](O)[C@H]6O)C(C)(C)[C@@H]5CC[C@]43C)[C@@H]12`, in the data set with SARS-CoV-2, the half-maximal effective concentration (EC50) came to 7.04 µM. The CC50 in data set [1] came to 40.9 µM. Moreover, the selectivity ratio in data set [2] was 5.8.
Consider `C=C(C)[C@@H]1CC[C@]2(C(=O)NCc3ccc(Cl)cc3)CC[C@]3(C)[C@H](CC[C@@H]4[C@@]5(C)CC[C@H](O[C@@H]6O[C@H](CO)[C@@H](O[C@@H]7O[C@@H](C)[C@H](O)[C@@H](O)[C@H]7O)[C@H](O)[C@H]6O[C@@H]6O[C@@H](C)[C@H](O)[C@@H](O)[C@H]6O)C(C)(C)[C@@H]5CC[C@]43C)[C@@H]12`, for which, in the data set with SARS-CoV-2, the 50% effective concentration (EC50) was more than 20 µM.
On to `O=C(/C=C/c1ccc(O)c2oc(-c3ccc(O)c(O)c3)cc12)O[C@H](Cc1ccc(O)c(O)c1)C(=O)O`, for which the 50% effective concentration (EC50) with SARS-CoV-2 was found to be 5.63 µM. Further, in data set [1], the CC50 was more than 100 µM. For the same compound, in data set [2], the selectivity ratio is more than 17.8.
On to `C=C(C)[C@@H]1CC[C@]2(C(=O)NCc3cccc(Cl)c3)CC[C@]3(C)[C@H](CC[C@@H]4[C@@]5(C)CC[C@H](O[C@@H]6O[C@H](CO)[C@@H](O[C@@H]7O[C@@H](C)[C@H](O)[C@@H](O)[C@H]7O)[C@H](O)[C@H]6O[C@@H]6O[C@@H](C)[C@H](O)[C@@H](O)[C@H]6O)C(C)(C)[C@@H]5CC[C@]43C)[C@@H]12`, for which the concentration for a half-maximal effect (EC50) in the data set on SARS-CoV-2 was more than 20 µM.
`C=C(C)[C@@H]1CC[C@]2(C(=O)Nc3ccc(OC)cc3)CC[C@]3(C)[C@H](CC[C@@H]4[C@@]5(C)CC[C@H](O[C@@H]6O[C@H](CO)[C@@H](O[C@@H]7O[C@@H](C)[C@H](O)[C@@H](O)[C@H]7O)[C@H](O)[C@H]6O[C@@H]6O[C@@H](C)[C@H](O)[C@@H](O)[C@H]6O)C(C)(C)[C@@H]5CC[C@]43C)[C@@H]12`: in the data set on SARS-CoV-2, the concentration for a half-maximal effect (EC50) came to 9.44 µM. For the same compound, the CC50 in data set [1] came to 178 µM. In data set [2], the selectivity ratio amounted to 18.9.
For `C=C(C)[C@@H]1CC[C@]2(C(=O)Nc3ccc(-c4ccccc4)cc3)CC[C@]3(C)[C@H](CC[C@@H]4[C@@]5(C)CC[C@H](O[C@@H]6O[C@H](CO)[C@@H](O[C@@H]7O[C@@H](C)[C@H](O)[C@@H](O)[C@H]7O)[C@H](O)[C@H]6O[C@@H]6O[C@@H](C)[C@H](O)[C@@H](O)[C@H]6O)C(C)(C)[C@@H]5CC[C@]43C)[C@@H]12` the same measures were 8.46 µM, 100 µM and 11.9.
On to `C=C(C)[C@@H]1CC[C@]2(C(=O)NNCc3ccccc3)CC[C@]3(C)[C@H](CC[C@@H]4[C@@]5(C)CC[C@H](O[C@@H]6O[C@H](CO)[C@@H](O[C@@H]7O[C@@H](C)[C@H](O)[C@@H](O)[C@H]7O)[C@H](O)[C@H]6O[C@@H]6O[C@@H](C)[C@H](O)[C@@H](O)[C@H]6O)C(C)(C)[C@@H]5CC[C@]43C)[C@@H]12`, for which the EC50 with SARS-CoV-2 is more than 20 µM.
In the case of `C=C(C)[C@@H]1CC[C@]2(C(=O)NCc3ccc(-c4ccccc4)cc3)CC[C@]3(C)[C@H](CC[C@@H]4[C@@]5(C)CC[C@H](O[C@@H]6O[C@H](CO)[C@@H](O[C@@H]7O[C@@H](C)[C@H](O)[C@@H](O)[C@H]7O)[C@H](O)[C@H]6O[C@@H]6O[C@@H](C)[C@H](O)[C@@H](O)[C@H]6O)C(C)(C)[C@@H]5CC[C@]43C)[C@@H]12`, the concentration for a half-maximal effect (EC50) in the data set on SARS-CoV-2 was more than 20 µM.
Consider `C=C(C)[C@@H]1CC[C@]2(C(=O)Nc3ccc4sccc4c3)CC[C@]3(C)[C@H](CC[C@@H]4[C@@]5(C)CC[C@H](O[C@@H]6O[C@H](CO)[C@@H](O[C@@H]7O[C@@H](C)[C@H](O)[C@@H](O)[C@H]7O)[C@H](O)[C@H]6O[C@@H]6O[C@@H](C)[C@H](O)[C@@H](O)[C@H]6O)C(C)(C)[C@@H]5CC[C@]43C)[C@@H]12`, for which the concentration giving a half-maximal response (EC50) with SARS-CoV-2 was more than 20 µM.
The same measure, in the same setting: next, `C=C(C)[C@@H]1CC[C@]2(C(=O)NCc3cccc(OC)c3)CC[C@]3(C)[C@H](CC[C@@H]4[C@@]5(C)CC[C@H](O[C@@H]6O[C@H](CO)[C@@H](O[C@@H]7O[C@@H](C)[C@H](O)[C@@H](O)[C@H]7O)[C@H](O)[C@H]6O[C@@H]6O[C@@H](C)[C@H](O)[C@@H](O)[C@H]6O)C(C)(C)[C@@H]5CC[C@]43C)[C@@H]12`: more than 20 µM.
As to `C=C(C)[C@@H]1CC[C@]2(C(=O)NCc3ccccc3OC)CC[C@]3(C)[C@H](CC[C@@H]4[C@@]5(C)CC[C@H](O[C@@H]6O[C@H](CO)[C@@H](O[C@@H]7O[C@@H](C)[C@H](O)[C@@H](O)[C@H]7O)[C@H](O)[C@H]6O[C@@H]6O[C@@H](C)[C@H](O)[C@@H](O)[C@H]6O)C(C)(C)[C@@H]5CC[C@]43C)[C@@H]12`, the EC50 in the data set with SARS-CoV-2 is more than 20 µM.
Still for that read-out and setting: next, `C=C(C)[C@@H]1CC[C@]2(C(=O)NCc3ccco3)CC[C@]3(C)[C@H](CC[C@@H]4[C@@]5(C)CC[C@H](O[C@@H]6O[C@H](CO)[C@@H](O[C@@H]7O[C@@H](C)[C@H](O)[C@@H](O)[C@H]7O)[C@H](O)[C@H]6O[C@@H]6O[C@@H](C)[C@H](O)[C@@H](O)[C@H]6O)C(C)(C)[C@@H]5CC[C@]43C)[C@@H]12`: more than 20 µM; `C=C(C)[C@@H]1CC[C@]2(C(=O)NCc3ccc(OC)cc3)CC[C@]3(C)[C@H](CC[C@@H]4[C@@]5(C)CC[C@H](O[C@@H]6O[C@H](CO)[C@@H](O[C@@H]7O[C@@H](C)[C@H](O)[C@@H](O)[C@H]7O)[C@H](O)[C@H]6O[C@@H]6O[C@@H](C)[C@H](O)[C@@H](O)[C@H]6O)C(C)(C)[C@@H]5CC[C@]43C)[C@@H]12`: more than 20 µM.
Take `C=C(C)[C@@H]1CC[C@]2(C(=O)NCC3CCCCC3)CC[C@]3(C)[C@H](CC[C@@H]4[C@@]5(C)CC[C@H](O[C@@H]6O[C@H](CO)[C@@H](O[C@@H]7O[C@@H](C)[C@H](O)[C@@H](O)[C@H]7O)[C@H](O)[C@H]6O[C@@H]6O[C@@H](C)[C@H](O)[C@@H](O)[C@H]6O)C(C)(C)[C@@H]5CC[C@]43C)[C@@H]12`: the concentration giving a half-maximal response (EC50) in the data set on SARS-CoV-2 is more than 20 µM.
On the same count and under the same terms, next, `C=C(C)[C@@H]1CC[C@]2(C(=O)NNc3ccccc3)CC[C@]3(C)[C@H](CC[C@@H]4[C@@]5(C)CC[C@H](O[C@@H]6O[C@H](CO)[C@@H](O[C@@H]7O[C@@H](C)[C@H](O)[C@@H](O)[C@H]7O)[C@H](O)[C@H]6O[C@@H]6O[C@@H](C)[C@H](O)[C@@H](O)[C@H]6O)C(C)(C)[C@@H]5CC[C@]43C)[C@@H]12`: more than 20 µM.
